Assay [1] relates to Mesenchymal stem cell. The assay can be described thus: Induction of osteogenesis of rabbit mesenchymal stem cells by alkaline phosphatase assay. Format: functional. The following applies: Oryctolagus cuniculus.
Assay [2] deals with Mesenchymal stem cell. As to the kind of experiment: Effect on cell proliferation of rabbit mesenchymal stem cells incubated for 7 days by MTT assay. It counts as functional. Conditions: Oryctolagus cuniculus.
Assay [3] has as its system Mesenchymal stem cell. As to the kind of experiment: (§1) Increase in BMP2 mRNA expression in rabbit mesenchymal stem cells incubated for 14 days by qRT-PCR method relative to untreated control. Conditions: Oryctolagus cuniculus. It counts as functional. Background: Real-time PCR tracks product formation cycle by cycle.
The test system of assay [4] is Mesenchymal stem cell. The assay can be described thus: Effect on cell morphology of rabbit mesenchymal stem cells incubated for 7 days by H and E staining method. Format: functional. Conditions: Oryctolagus cuniculus.
Assay [5] has as its system Mesenchymal stem cell. The assay can be described thus: (§2) Increase in RUNX2 mRNA expression in rabbit mesenchymal stem cells incubated for 7 days by qRT-PCR method relative to untreated control. Format: functional. Conditions: Oryctolagus cuniculus.
In assay [6] the test system is Mesenchymal stem cell. As to the kind of experiment: Effect on cell morphology of rabbit mesenchymal stem cells incubated for 3 days by phalloidin immunofluorescence staining method. It counts as functional. The following applies: Oryctolagus cuniculus.
Assay [7] deals with Mesenchymal stem cell. As to the kind of experiment: (§3) Increase in BMP2 mRNA expression in rabbit mesenchymal stem cells incubated for 7 days by qRT-PCR method relative to untreated control. Format: functional. The following applies: Oryctolagus cuniculus.
The subject of assay [8] is Mesenchymal stem cell. The assay can be described thus: Effect on cell proliferation of rabbit mesenchymal stem cells incubated for 3 days by MTT assay. The following applies: Oryctolagus cuniculus. Format: functional.
In assay [9] the test system is Mesenchymal stem cell. The assay can be described thus: (§4) Increase in RUNX2 mRNA expression in rabbit mesenchymal stem cells incubated for 14 days by qRT-PCR method relative to untreated control. The following applies: Oryctolagus cuniculus. Format: functional.
Assay [10] concerns Mesenchymal stem cell. As to the kind of experiment: Increase in SPARC mRNA expression in rabbit mesenchymal stem cells incubated for 7 days by qRT-PCR method relative to untreated control. It counts as functional. The following applies: Oryctolagus cuniculus.
Assay [11] concerns Mesenchymal stem cell. As to the kind of experiment: Increase in cell proliferation of rabbit mesenchymal stem cells incubated for 14 days by MTT assay. It counts as functional. The following applies: Oryctolagus cuniculus. A general note: Formazan colour is commonly taken as a measure of viable cells.
Assay [12] can be described thus: as §1. Format: functional, Oryctolagus cuniculus, Mesenchymal stem cell.
The nature of assay [13]: Increase in SPARC mRNA expression in rabbit mesenchymal stem cells incubated for 14 days by qRT-PCR method relative to untreated control. It counts as functional, Oryctolagus cuniculus, Mesenchymal stem cell.
Assay [14] in a line: Reduction in cell proliferation of rabbit mesenchymal stem cells incubated for 14 days by MTT assay. It counts as functional. Conditions: Oryctolagus cuniculus.
A short description of assay [15]: as §2. Format: functional, Oryctolagus cuniculus, Mesenchymal stem cell.
Assay [16] in a line: Reduction in cell proliferation of rabbit mesenchymal stem cells incubated for 5 days by MTT assay. Conditions: Oryctolagus cuniculus. Format: functional.
A short description of assay [17]: as §3. Format: functional, Oryctolagus cuniculus, Mesenchymal stem cell.
Assay [18] can be described thus: as §4. Format: functional, Oryctolagus cuniculus, Mesenchymal stem cell.
Assay [19] in a line: Reduction in cell proliferation of rabbit mesenchymal stem cells incubated for 7 days by MTT assay. Format: functional. The following applies: Oryctolagus cuniculus.

Calls of active or inactive are those of the source. The calls are words filed in the database; no cut-off is given here. Peptide text beside a SMILES is read from it.

For `CC(C)C[C@H](NC(=O)[C@@H](NC(=O)[C@H](CCCNC(=N)N)NC(=O)CNC(=O)[C@H](CCC(N)=O)NC(=O)[C@H](CCCNC(=N)N)NC(=O)[C@H](CCCCN)NC(=O)[C@H](CC(C)C)NC(=O)[C@H](C)N)[C@@H](C)O)C(=O)O` (H-ALKRQGRTL-OH), the result in [1] and in [2] was inactive.

As for `N[C@@H](Cc1ccc(O)cc1)C(=O)NCC(=O)N[C@@H](Cc1ccccc1)C(=O)NCC(=O)NCC(=O)O` (H-YGFGG-OH), the outcome in assay [3], in assay [4], in assay [5], in assay [6], in [7] and in assay [8] was inactive. Moreover, the outcome in assay [9], in assay [1], in [10] and in assay [2] was inactive. Besides, in [11], the result was Active.

As to `CC(C)C[C@H](NC(=O)[C@@H](NC(=O)[C@H](CCCNC(=N)N)NC(=O)CNC(=O)[C@H](CCC(N)=O)NC(=O)[C@H](CCCNC(=N)N)NC(=O)[C@H](CCCCN)NC(=O)[C@H](CC(C)C)NC(=O)[C@H](C)NC(=O)[C@@H](N)CS)[C@@H](C)O)C(=O)O` (H-CALKRQGRTL-OH), the result in [1] and in [2] was inactive.

For the compound `N[C@@H](CS)C(=O)N[C@@H](Cc1ccc(O)cc1)C(=O)NCC(=O)N[C@@H](Cc1ccccc1)C(=O)NCC(=O)NCC(=O)O` (H-CYGFGG-OH), the “fold change (FC)” value in assay [12] stood at 60; in [13], 1.6; in assay [15], 2.6; in assay [17], 49; in assay [18], 1.7. For the same compound, the outcome in assay [4], in assay [6], in assay [8] and in [10] was inactive. In addition, the result in assay [14], in assay [16], in assay [1] and in assay [19] was Active.

For `N[C@@H](Cc1ccc(O)cc1)C(=O)NCC(=O)N[C@@H](Cc1ccccc1)C(=O)NCC(=O)NCC(=O)N[C@@H](CS)C(=O)O` (H-YGFGGC-OH), the result in assay [1] and in assay [2] was inactive.

As for `CC(C)C[C@H](NC(=O)[C@H](C)N)C(=O)N[C@@H](CCCCN)C(=O)N[C@@H](CCCNC(=N)N)C(=O)N[C@@H](CCC(N)=O)C(=O)NCC(=O)N[C@@H](CCCNC(=N)N)C(=O)N[C@H](C(=O)N[C@@H](CC(C)C)C(=O)N[C@@H](CS)C(=O)O)[C@@H](C)O` (H-ALKRQGRTLC-OH), the outcome in assay [1] and in assay [2] was inactive.

(Values after ChEMBL document CHEMBL3585267, “Bioactivity of surface tethered Osteogenic Growth Peptide motifs” (2014).)
